In paper PMC4139342, “Pharmacokinetics-Pharmacodynamics Analysis of Bicyclic 4-Nitroimidazole Analogs in a Murine Model of Tuberculosis” (PLoS ONE, 2014):

System: H37Rv::F420-mutants, F420 deficient (FbiC mutant)
Assay type: cell-based, M. tuberculosis

Row | SMILES | H37Rv::F420-mutants MIC99 [µg/mL]
1 | CC[C@H]1Oc2nc([N+](=O)[O-])cn2C[C@@H]1NCc1ccc(-c2ccc(OC(F)(F)F)cc2)cc1 [NI-297] | >10
2 | CC[C@@H]1Oc2nc([N+](=O)[O-])cn2C[C@@H]1OCc1ccc(OC(F)(F)F)cc1 [NI-145] | >10
3 | CC[C@@H]1Oc2nc([N+](=O)[O-])cn2C[C@@H]1NCc1ccc(OC(F)(F)F)c(F)c1 [NI-176] | >10
4 | O=[N+]([O-])c1cn2c(n1)OC1(CC1)C(OCc1ccc(OC(F)(F)F)cc1)C2 (centres unmarked) [NI-302] | >10
5 | O=C(CO[C@@H]1COc2nc([N+](=O)[O-])cn2C1)N1CCN(c2ccc(OC(F)(F)F)cc2)CC1 [NI-622] | >10
6 | O=[N+]([O-])c1cn2c(n1)OC[C@@H](NCc1ccc(OC(F)(F)F)c(Cl)c1)C2 [NI-135] | >10
7 | O=C(CO[C@@H]1COc2nc([N+](=O)[O-])cn2C1)N1CCN(c2ccc(C(F)(F)F)cn2)CC1 [NI-644] | >10
8 | O=[N+]([O-])c1cn2c(n1)OC[C@@H](NCc1ccc(OC(F)(F)F)c(O)c1)C2 [NI-147] | >10
9 | O=[N+]([O-])c1cn2c(n1)OC[C@@H](NCc1ccc(OC(F)(F)F)cc1)C2 [Amino-824, ((s)-2-nitro-6,7-dihydro-5H-imidazo[2,1-b][1,3]oxazin-6-yl)-(4-trifluoromethoxybenzyl)amine] | >10
10 | O=[N+]([O-])c1cn2c(n1)OC[C@@H](NCc1ccc(OC(F)(F)F)c(F)c1)C2 [NI-136] | >10
11 | CC[C@@H]1Oc2nc([N+](=O)[O-])cn2C[C@@H]1NCc1ccc(OC(F)(F)F)cc1 [NI-269] | >10
12 | O=[N+]([O-])c1cn2c(n1)OC[C@@H](NCCc1ccc(OC(F)(F)F)cc1)C2 [AminoEthyl-824] | >10
13 | O=[N+]([O-])c1cn2c(n1)OC[C@@H](OCc1ccc(OC(F)(F)F)cc1)C2 [PA-824, (6S)-2-nitro-6-{[4-(trifluoromethoxy)benzyl]oxy}-6,7-dihydro-5H-imidazo[2,1-b][1, 3]oxazine, reference compound] | >10
14 | CC[C@H]1Oc2nc([N+](=O)[O-])cn2C[C@@H]1NCc1ccc(OC(F)(F)F)cc1 [NI-182] | >10
